Source: ChEMBL document CHEMBL1201862, “PubChem BioAssay data set” (2004)
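Values below derive from 48-hour exposures of cells grown in 96-well plates, with endpoints linearly interpolated between the two concentrations bracketing the appropriate inhibition level. GI50: concentration for 50% inhibition of growth.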 The source made the active and inactive calls. Rule as the data show it: active = GI50 up to about 1.1 µM and inactive = higher.

Assays:
Test in all cases: NCI anticancer screen, dose series, 48 h
786-0 = tested on: 786-0
ACHN = tested on: ACHN
CAKI-1 = tested on: CAKI-1
HCC 2998 = tested on: HCC 2998
HCT-116 = tested on: HCT-116
IGROV-1 = tested on: IGROV-1
K562 = tested on: K562
LOX IMVI = tested on: LOX IMVI
NCI-H226 = tested on: NCI-H226
NCI-H23 = tested on: NCI-H23
SF-295 = tested on: SF-295
SK-MEL-2 = tested on: SK-MEL-2
SNB-19 = tested on: SNB-19
SW-620 = tested on: SW-620
TK-10 = tested on: TK-10
U-251 = tested on: U-251
UO-31 = tested on: UO-31
T47D = tested on: T47D
UACC-257 = tested on: UACC-257

Measured: GI50

c1ccc(CCCC2Sc3cccc4cccc(c34)S2)cc1
inactive: 786-0 > 100 µM | ACHN > 100 µM | CAKI-1 > 100 µM | HCC 2998 88.7 µM | HCT-116 > 100 µM | IGROV-1 > 100 µM | K562 > 100 µM | LOX IMVI > 100 µM | NCI-H226 88.3 µM | NCI-H23 > 100 µM | SF-295 > 100 µM | SK-MEL-2 > 100 µM | SNB-19 > 100 µM | SW-620 > 100 µM | TK-10 > 100 µM | U-251 > 100 µM | UO-31 > 100 µM

O=c1c2cc(Br)cc(Br)c2[nH]c(=S)n1-c1ccc(/N=N/c2ccc(O)c3cccnc23)cc1
inactive: 786-0 25.7 µM | ACHN 25.4 µM | CAKI-1 54.3 µM | HCT-116 26.2 µM | IGROV-1 11.2 µM | K562 10.7 µM | LOX IMVI 24.5 µM | NCI-H226 > 100 µM | SF-295 64.9 µM | SK-MEL-2 > 100 µM | SNB-19 19.7 µM | SW-620 29.8 µM | T47D 38.2 µM | TK-10 66.1 µM | U-251 19.7 µM | UACC-257 50.5 µM | UO-31 34.9 µM

CCOC(=O)C1(c2ccccc2)CCC(=O)CC1
inactive: 786-0 > 100 µM | ACHN > 100 µM | CAKI-1 > 100 µM | HCC 2998 > 100 µM | HCT-116 > 100 µM | IGROV-1 > 100 µM | K562 > 100 µM | LOX IMVI > 100 µM | NCI-H226 > 100 µM | NCI-H23 > 100 µM | SF-295 > 100 µM | SK-MEL-2 > 100 µM | SNB-19 > 100 µM | SW-620 > 100 µM | TK-10 > 100 µM | U-251 > 100 µM | UACC-257 > 100 µM | UO-31 > 100 µM

O=C(O)CCSC(=O)Nc1ccccc1Cl
inactive: 786-0 > 100 µM | ACHN > 100 µM | CAKI-1 > 100 µM | HCC 2998 > 100 µM | HCT-116 > 100 µM | IGROV-1 > 100 µM | K562 > 100 µM | LOX IMVI > 100 µM | NCI-H226 > 100 µM | NCI-H23 > 100 µM | SF-295 > 100 µM | SNB-19 > 100 µM | SW-620 > 100 µM | TK-10 > 100 µM | U-251 > 100 µM | UACC-257 > 100 µM | UO-31 > 100 µM

COC(=O)c1ccc(CS(=O)(=O)c2ccccc2)cc1
inactive: 786-0 > 100 µM | ACHN > 100 µM | CAKI-1 > 100 µM | HCC 2998 > 100 µM | HCT-116 60.3 µM | IGROV-1 > 100 µM | K562 > 100 µM | LOX IMVI 74.3 µM | NCI-H226 > 100 µM | NCI-H23 > 100 µM | SF-295 61.7 µM | SK-MEL-2 38.5 µM | SNB-19 > 100 µM | SW-620 45.1 µM | TK-10 > 100 µM | U-251 > 100 µM | UACC-257 > 100 µM | UO-31 > 100 µM

CCOC(=O)C(C(=O)OCC)=C1N[C@H](C(=O)OCC)CS1
inactive: 786-0 > 100 µM | ACHN > 100 µM | CAKI-1 > 100 µM | HCC 2998 > 100 µM | HCT-116 > 100 µM | IGROV-1 > 100 µM | K562 > 100 µM | LOX IMVI > 100 µM | NCI-H226 80.5 µM | NCI-H23 > 100 µM | SF-295 > 100 µM | SK-MEL-2 > 100 µM | SNB-19 > 100 µM | SW-620 > 100 µM | U-251 > 100 µM | UACC-257 > 100 µM | UO-31 > 100 µM

O=[N+]([O-])C1C2C=CC(C2)[C@H]1c1ccccc1Cl (stereo not given in full)
inactive: 786-0 > 100 µM | ACHN > 83.6 µM | CAKI-1 > 10 µM | HCC 2998 > 100 µM | HCT-116 > 89.9 µM | IGROV-1 > 31.6 µM | K562 59.4 µM | LOX IMVI > 100 µM | NCI-H226 15.8 µM | NCI-H23 63.4 µM | SF-295 > 100 µM | SK-MEL-2 > 77.8 µM | SNB-19 > 100 µM | SW-620 > 100 µM | TK-10 > 100 µM | U-251 > 87.9 µM | UACC-257 67 µM | UO-31 > 54 µM

N#C/C(=C\c1ccc(O)c(O)c1)C(N)=S [TYRPHOSTIN 47]
inactive: 786-0 56.6 µM | ACHN > 100 µM | CAKI-1 > 100 µM | HCC 2998 > 73.5 µM | HCT-116 50.2 µM | IGROV-1 > 100 µM | K562 22.5 µM | LOX IMVI > 88.9 µM | NCI-H226 > 100 µM | NCI-H23 64 µM | SF-295 82.8 µM | SK-MEL-2 > 100 µM | SNB-19 > 70.3 µM | SW-620 79.1 µM | TK-10 > 100 µM | U-251 70.5 µM | UACC-257 > 54.7 µM | UO-31 98.9 µM
